Target: T1, Aminopeptidase N (Sus scrofa, UniProt P15145)
T1 sequence (P15145 whole entry): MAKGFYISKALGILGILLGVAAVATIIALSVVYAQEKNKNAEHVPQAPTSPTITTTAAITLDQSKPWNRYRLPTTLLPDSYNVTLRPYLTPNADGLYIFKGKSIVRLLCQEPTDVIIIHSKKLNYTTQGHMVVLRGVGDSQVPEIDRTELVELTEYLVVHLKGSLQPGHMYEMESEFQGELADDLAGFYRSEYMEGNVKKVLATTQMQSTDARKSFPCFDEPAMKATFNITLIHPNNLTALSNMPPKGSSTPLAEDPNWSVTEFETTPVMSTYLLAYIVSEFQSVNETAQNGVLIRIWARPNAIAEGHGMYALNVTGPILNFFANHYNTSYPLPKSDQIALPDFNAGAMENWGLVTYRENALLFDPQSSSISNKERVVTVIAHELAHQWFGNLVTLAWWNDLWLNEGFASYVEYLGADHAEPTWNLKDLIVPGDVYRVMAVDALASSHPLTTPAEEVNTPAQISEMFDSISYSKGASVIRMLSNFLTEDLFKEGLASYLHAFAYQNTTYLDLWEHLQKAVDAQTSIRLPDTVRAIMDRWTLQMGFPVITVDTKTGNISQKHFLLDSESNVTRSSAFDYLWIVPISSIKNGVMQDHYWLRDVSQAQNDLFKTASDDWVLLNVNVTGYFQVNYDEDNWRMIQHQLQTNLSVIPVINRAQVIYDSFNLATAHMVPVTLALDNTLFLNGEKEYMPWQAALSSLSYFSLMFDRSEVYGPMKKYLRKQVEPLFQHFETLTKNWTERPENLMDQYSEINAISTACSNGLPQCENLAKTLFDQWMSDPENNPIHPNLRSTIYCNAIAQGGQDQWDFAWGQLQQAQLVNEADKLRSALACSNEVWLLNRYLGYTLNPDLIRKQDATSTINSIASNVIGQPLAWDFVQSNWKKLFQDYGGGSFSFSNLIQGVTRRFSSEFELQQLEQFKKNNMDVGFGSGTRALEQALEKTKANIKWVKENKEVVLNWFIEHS
Experiment: Inhibition of pig kidney Aminopeptidase N

Row | Ki [nM] | Structure (SMILES)
1 | 25 | N[C@H](CS)c1ccccc1
2 | 190 | NC(Cc1ccccc1)P(=O)(O)CC(Cc1ccccc1)C(=O)O (stereo unspecified)
3 | 27 | N[C@H](CS)CCc1ccccc1
4 | 370 | CC(C)CC(N)P(=O)(O)CC(Cc1ccccc1)C(=O)O (stereo unspecified)
5 | 28 | C[C@H](N)CS
6 | 22 | CC(C)C[C@H](N)CS

Row | Structure (SMILES) | Ki [nM]
7 | CC(N)[PH](=O)O (stereo unspecified) | 8400
8 | NC(Cc1ccccc1)[PH](=O)O (stereo unspecified) | 960
9 | CSCCC(N)[PH](=O)O (stereo unspecified) | 400
10 | CC(C)CC(N)[PH](=O)O (stereo unspecified) | 1200
11 | NC(c1ccccc1)[PH](=O)O (stereo unspecified) | 4800
